Measured values: PMC6480586, “Intestinal Permeability Study of Clinically Relevant Formulations of Silibinin in Caco-2 Cell Monolayers” (International Journal of Molecular Sciences, 2019)

Key:
[1] = Caco-2 cell monolayer transport (permeability) study; type: in vitro ADME; conditions: human, formulations at 200 µg/mL in HBSS/0.6% DMSO, pH 7.4, 37 °C, up to 120 min, n = 6; for Papp A→B at 120 min, 200 µg/mL: apical to basolateral
Method: Caco-2 cells were seeded at a density of 1 × 10^5 onto Transwell 6-well inserts with a polyethylene terephthalate membrane (0.4 µm pore size; BD Falcon) and were maintained at 37 °C under 90% humidity and 5% CO2. The medium was replaced every two to three days for both the AP and BL chambers. Cell monolayers were used 19–21 days after seeding, once confluence and differentiation were achieved. The integrity of each cell monolayer was assessed by measuring the TEER before and after the experiments with an epithelial voltammeter (Millicell-ERS). Permeability studies were performed by adding the silibinin formulations at 200 µg/mL in HBSS/0.6% DMSO (stocks were prepared at 30 mg/mL in 100% DMSO) and, in parallel, standard silibinin at different concentrations (10, 20, 50, 100, 150, 200, and 300 µmol/L).
The transport experiment was initiated by removing the culture medium from the AP and BL chambers. The Caco-2 monolayers were washed twice with pre-warmed HBSS (pH 7.4) and incubated with the same solution at 37 °C for 30 min. […]
Transport studies were performed from apical-to-basolateral (AP–BL) and basolateral-to-apical (BL–AP) chambers. The apparent permeability (Papp) values for each compound were calculated according to the following equation: Papp=dQ/dt·1/A·C0·60 where Papp is the apparent permeability (cm/s), dQ/dt is the steady-state flux, A is the diffusion area of the monolayers (cm^2), C0 is the initial concentration of the drug in the donor compartment (µM), and 60 is a conversion factor [49].
The efflux ratio was calculated to determine the absorption mechanism such as the ratio of Papp (BL–AP) […] Papp (AP–BL).
Analyses were performed using an Agilent LC 1100 series HPLC system (Agilent Technologies, Inc., Palo Alto, CA) controlled by Chemstation software, equipped with a pump, autosampler, column oven, and UV–VIS diode array detector (wavelength selected at 280 nm to detect silibinin). […] A calibration graph for the quantitative evaluation of silibinin was performed using a six-point regression curve (r^2 > 0.999).

[2] = cited from earlier work

Papp A→B at 120 min, 200 µg/mL [1] [×10⁻⁶ cm/s] | Papp B→A at 120 min, 200 µg/mL ([1]; basolateral to apical) [×10⁻⁶ cm/s] | SMILES | Solubility in polar aprotic solvents ([2]; e.g., acetone, DMF, THF) | Solubility in non-polar solvents ([2]; e.g., chloroform and petroleum ether) | Solubility in polar protic solvents ([2]; e.g., ethanol and methanol) | Solubility in water ([2]; water) | Water solubility ([2]; water) [µg/mL]
60 | – | COCCc1ccc(OCC(O)CNC(C)C)cc1 (centres unmarked) [metroprolol, metoprolol] | – | – | – | – | –
3.2 | 6.28 | COc1cc(C2Oc3cc([C@H]4Oc5cc(O)cc(O)c5C(=O)[C@@H]4O)ccc3OC2CO)ccc1O (some centres unmarked) [silibinin] | soluble | insoluble | poorly soluble | very poor solubility in water | < 40
